{"source": "paper PMC2628638", "about": "“Catalytic inhibition of topoisomerase II by a novel rationally designed ATP-competitive purine analogue” (BMC Chemical Biology, 2009)", "format_in_all_cases": "biochemical", "key": {"[1]": {"system": "panel of serine/threonine/tyrosine protein kinases", "experiment": "Kinase selectivity profiling, standard panel of kinases", "conditions": "in vitro, versus topoisomerase II", "text": "Based on homology structural models of the target, a purine scaffold was designed interactively using the Macromodel modeling software. The designed purine scaffold was subsequently used as a substructure query to search the Novartis compound collection. Around 50 molecules were retrieved in this manner and screened in an ATPase assay using purified full length tagged human topoisomerase II alpha. […] Subsequently, we carried out kinetic analysis with QAP 1 in order to corroborate the mode of action. […] The data were analyzed by non-linear regression analysis using the equations corresponding to competitive, uncompetitive, and mixed inhibition (see Methods) and a statistical analysis (F-test; p ≤ 0.05) was carried out to identify the best model. […] A linearized representation (Eady-Hofstee) of one of these experiments is depicted in Figure 1D. To confirm the mode of action of QAP 1, inhibition studies were also carried out in the presence of different concentration of the inhibitor at different ATP concentrations and the IC50 values were determined. […] Next, QAP 1 was tested against a panel of kinases in a radiometric assay. With the exception of subtle inhibition of the Ret and c-Src tyrosine kinases no effect of the compound was observed on other kinases in the panel, even at the highest concentration tested (Table 1). […]"}, "Flt-3": {"target": "Flt-3 (Homo sapiens, UniProt P36888)", "sequence (P36888 27-993, species assumed)": "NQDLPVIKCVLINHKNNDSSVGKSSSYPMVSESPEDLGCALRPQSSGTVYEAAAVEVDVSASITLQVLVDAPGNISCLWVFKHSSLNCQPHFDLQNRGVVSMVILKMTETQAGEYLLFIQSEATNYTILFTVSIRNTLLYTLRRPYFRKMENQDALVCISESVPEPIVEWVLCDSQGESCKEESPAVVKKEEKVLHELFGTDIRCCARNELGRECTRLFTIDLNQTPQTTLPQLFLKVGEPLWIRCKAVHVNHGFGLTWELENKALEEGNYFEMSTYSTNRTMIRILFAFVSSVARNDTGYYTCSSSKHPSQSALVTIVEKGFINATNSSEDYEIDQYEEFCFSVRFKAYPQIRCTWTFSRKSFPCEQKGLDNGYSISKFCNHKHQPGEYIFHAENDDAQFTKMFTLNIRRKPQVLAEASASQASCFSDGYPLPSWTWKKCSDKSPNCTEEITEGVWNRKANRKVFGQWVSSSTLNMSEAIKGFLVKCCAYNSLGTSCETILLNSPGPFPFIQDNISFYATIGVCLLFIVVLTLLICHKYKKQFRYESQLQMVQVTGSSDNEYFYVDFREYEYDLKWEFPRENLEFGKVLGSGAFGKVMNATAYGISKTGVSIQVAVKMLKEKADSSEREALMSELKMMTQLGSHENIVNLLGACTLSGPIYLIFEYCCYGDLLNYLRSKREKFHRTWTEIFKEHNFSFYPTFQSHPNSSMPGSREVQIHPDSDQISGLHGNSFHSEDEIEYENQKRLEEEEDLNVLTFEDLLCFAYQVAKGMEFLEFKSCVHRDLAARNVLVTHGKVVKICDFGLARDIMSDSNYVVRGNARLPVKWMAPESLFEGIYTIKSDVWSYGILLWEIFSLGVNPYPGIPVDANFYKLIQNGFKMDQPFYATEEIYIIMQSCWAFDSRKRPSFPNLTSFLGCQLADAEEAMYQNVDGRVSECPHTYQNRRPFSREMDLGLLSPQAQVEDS", "experiment": "Radiometric filter binding kinase assay", "text": "(§1) Based on homology structural models of the target, a purine scaffold was designed interactively using the Macromodel modeling software. The designed purine scaffold was subsequently used as a substructure query to search the Novartis compound collection. Around 50 molecules were retrieved in this manner and screened in an ATPase assay using purified full length tagged human topoisomerase II alpha. […] Subsequently, we carried out kinetic analysis with QAP 1 in order to corroborate the mode of action. […] The data were analyzed by non-linear regression analysis using the equations corresponding to competitive, uncompetitive, and mixed inhibition (see Methods) and a statistical analysis (F-test; p ≤ 0.05) was carried out to identify the best model. […] A linearized representation (Eady-Hofstee) of one of these experiments is depicted in Figure 1D. To confirm the mode of action of QAP 1, inhibition studies were also carried out in the presence of different concentration of the inhibitor at different ATP concentrations and the IC50 values were determined. […] Next, QAP 1 was tested against a panel of kinases in a radiometric assay. With the exception of subtle inhibition of the Ret and c-Src tyrosine kinases no effect of the compound was observed on other kinases in the panel, even at the highest concentration tested (Table 1). Thus, QAP 1 is a relatively potent inhibitor of topoisomerase II ATPase function with fairly good selectivity over various serine/threonine/tyrosine protein kinases. To test if QAP 1 inhibited topoisomerase II DNA strand passage activity, nuclear extracts of HL-60 leukemic cells were incubated with catenated kDNA in the presence of increasing concentrations of QAP 1."}, "Tek": {"target": "Tek (Homo sapiens, UniProt Q02763)", "experiment": "Radiometric filter binding kinase assay", "text": "as §1"}, "c-Abl": {"target": "c-Abl (Homo sapiens, UniProt P00519)", "experiment": "Radiometric filter binding kinase assay", "text": "as §1"}, "Axl": {"target": "Axl (Homo sapiens, UniProt P30530)", "experiment": "Radiometric filter binding kinase assay", "text": "as §1"}, "IGF-1R": {"target": "IGF-1R (Homo sapiens, UniProt P08069)", "sequence (P08069 31-1367, species assumed)": "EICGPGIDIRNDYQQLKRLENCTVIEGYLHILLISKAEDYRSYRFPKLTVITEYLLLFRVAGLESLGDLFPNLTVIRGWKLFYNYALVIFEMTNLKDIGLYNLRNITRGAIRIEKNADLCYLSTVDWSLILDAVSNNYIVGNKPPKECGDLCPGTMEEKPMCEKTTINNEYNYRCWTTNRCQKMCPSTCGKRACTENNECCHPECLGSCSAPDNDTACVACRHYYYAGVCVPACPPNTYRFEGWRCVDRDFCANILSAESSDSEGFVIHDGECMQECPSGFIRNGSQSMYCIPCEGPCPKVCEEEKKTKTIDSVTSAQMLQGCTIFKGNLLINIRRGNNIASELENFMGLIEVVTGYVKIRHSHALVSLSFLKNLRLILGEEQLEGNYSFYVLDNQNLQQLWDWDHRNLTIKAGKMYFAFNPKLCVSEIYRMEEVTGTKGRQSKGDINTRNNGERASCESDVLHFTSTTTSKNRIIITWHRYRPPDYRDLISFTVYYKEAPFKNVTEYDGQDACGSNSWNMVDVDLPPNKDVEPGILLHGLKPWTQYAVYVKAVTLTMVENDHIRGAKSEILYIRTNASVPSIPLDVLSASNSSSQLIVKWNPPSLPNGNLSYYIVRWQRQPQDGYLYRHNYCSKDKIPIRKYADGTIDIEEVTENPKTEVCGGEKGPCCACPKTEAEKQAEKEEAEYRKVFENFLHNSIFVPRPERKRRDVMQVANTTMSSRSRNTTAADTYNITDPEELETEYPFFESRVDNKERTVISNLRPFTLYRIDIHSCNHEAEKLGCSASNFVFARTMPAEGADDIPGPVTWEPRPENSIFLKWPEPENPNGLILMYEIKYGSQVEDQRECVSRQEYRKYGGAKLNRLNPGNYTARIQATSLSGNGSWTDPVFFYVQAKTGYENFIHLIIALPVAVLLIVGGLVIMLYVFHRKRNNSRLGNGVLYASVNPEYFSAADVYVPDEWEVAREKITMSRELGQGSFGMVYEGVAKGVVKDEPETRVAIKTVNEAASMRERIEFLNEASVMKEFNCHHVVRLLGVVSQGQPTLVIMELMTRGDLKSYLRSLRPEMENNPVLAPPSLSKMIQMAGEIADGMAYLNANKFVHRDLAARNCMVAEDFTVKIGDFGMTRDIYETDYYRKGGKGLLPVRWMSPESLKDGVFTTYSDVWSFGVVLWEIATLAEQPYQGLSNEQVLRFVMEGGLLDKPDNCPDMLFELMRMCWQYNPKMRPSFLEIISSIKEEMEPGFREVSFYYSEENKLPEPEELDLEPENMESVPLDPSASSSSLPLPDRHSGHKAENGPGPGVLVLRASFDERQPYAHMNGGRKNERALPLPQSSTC", "experiment": "Radiometric filter binding kinase assay", "text": "as §1"}, "HER-1": {"target": "HER-1 (Homo sapiens, UniProt P00533)", "experiment": "Radiometric filter binding kinase assay", "text": "as §1"}, "Jak2": {"target": "Jak2 (Homo sapiens, UniProt O60674)", "experiment": "Radiometric filter binding kinase assay", "text": "as §1"}, "FGFR3-K560E": {"target": "FGFR3-K560E", "experiment": "Radiometric filter binding kinase assay", "text": "as §1"}, "EphB4": {"target": "EphB4 (Homo sapiens, UniProt P54760)", "sequence (P54760 16-987, species assumed)": "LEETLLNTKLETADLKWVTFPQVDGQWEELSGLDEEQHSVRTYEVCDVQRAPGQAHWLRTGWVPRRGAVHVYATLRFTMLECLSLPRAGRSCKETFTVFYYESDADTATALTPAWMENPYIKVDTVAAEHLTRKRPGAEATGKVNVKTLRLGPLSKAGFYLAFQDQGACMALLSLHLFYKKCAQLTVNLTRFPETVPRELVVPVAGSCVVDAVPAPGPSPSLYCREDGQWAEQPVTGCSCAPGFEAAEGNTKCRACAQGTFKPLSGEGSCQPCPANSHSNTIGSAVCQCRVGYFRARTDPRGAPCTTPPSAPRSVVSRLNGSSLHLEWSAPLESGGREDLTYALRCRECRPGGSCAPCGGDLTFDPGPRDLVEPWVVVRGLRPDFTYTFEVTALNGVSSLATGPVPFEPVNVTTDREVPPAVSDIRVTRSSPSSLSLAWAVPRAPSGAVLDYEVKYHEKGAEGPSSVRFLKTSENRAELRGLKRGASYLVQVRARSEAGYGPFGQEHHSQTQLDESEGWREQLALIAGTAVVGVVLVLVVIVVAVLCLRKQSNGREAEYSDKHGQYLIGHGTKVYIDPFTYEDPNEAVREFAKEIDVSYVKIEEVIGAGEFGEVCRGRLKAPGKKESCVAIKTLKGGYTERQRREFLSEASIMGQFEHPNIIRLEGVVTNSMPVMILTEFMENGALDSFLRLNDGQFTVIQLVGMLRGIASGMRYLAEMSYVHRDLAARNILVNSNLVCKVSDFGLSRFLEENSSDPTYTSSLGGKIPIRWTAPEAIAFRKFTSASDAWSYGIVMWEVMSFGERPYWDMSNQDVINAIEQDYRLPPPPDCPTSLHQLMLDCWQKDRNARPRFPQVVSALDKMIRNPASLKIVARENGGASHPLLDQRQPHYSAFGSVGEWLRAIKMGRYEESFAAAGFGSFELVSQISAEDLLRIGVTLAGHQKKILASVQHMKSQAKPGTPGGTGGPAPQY", "experiment": "Radiometric filter binding kinase assay", "text": "as §1"}, "KDR": {"target": "KDR (Homo sapiens, UniProt P35968)", "experiment": "Radiometric filter binding kinase assay", "text": "as §1"}, "c-Src": {"target": "c-Src (Homo sapiens, UniProt P12931)", "experiment": "Radiometric filter binding kinase assay", "conditions": "mean of two independent experiments ± SD", "text": "as §1"}, "c-Met": {"target": "c-Met (Homo sapiens, UniProt P08581)", "sequence (P08581 25-1390)": "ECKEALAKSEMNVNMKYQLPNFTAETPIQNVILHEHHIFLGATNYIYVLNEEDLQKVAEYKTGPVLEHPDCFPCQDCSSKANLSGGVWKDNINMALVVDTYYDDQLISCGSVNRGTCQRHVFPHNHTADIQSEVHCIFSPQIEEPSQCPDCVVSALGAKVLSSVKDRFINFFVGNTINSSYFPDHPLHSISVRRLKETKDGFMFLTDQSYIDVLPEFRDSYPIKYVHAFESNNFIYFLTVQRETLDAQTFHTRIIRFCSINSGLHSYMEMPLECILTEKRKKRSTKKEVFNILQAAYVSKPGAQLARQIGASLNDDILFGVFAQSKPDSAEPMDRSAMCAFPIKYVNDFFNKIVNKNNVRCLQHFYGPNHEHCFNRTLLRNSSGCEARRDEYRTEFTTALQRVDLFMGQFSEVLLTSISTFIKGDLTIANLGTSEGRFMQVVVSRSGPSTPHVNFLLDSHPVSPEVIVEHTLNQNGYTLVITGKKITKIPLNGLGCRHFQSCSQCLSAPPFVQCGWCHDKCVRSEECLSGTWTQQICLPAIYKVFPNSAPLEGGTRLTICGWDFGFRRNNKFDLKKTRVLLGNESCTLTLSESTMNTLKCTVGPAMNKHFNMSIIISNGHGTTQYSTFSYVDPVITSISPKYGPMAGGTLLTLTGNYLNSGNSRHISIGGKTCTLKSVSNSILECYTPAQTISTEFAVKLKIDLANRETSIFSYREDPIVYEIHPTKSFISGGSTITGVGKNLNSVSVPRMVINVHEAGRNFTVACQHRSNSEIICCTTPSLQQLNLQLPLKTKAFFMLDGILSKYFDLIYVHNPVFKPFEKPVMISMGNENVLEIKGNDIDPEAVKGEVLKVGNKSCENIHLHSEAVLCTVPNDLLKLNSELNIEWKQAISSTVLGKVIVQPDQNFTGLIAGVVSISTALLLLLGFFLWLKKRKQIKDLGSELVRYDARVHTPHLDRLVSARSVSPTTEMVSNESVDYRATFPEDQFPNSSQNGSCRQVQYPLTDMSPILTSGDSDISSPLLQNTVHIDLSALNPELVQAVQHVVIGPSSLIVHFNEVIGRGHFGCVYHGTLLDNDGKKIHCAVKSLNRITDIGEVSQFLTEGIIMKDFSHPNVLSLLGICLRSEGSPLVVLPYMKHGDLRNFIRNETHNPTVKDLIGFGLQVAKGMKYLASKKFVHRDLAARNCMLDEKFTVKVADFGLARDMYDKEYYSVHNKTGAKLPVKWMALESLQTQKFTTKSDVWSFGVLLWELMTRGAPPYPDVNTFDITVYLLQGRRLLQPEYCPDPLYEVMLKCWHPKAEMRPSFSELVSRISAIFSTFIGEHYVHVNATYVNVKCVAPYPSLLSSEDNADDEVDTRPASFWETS", "experiment": "Radiometric filter binding kinase assay", "text": "as §1"}, "Ret": {"target": "Ret (Homo sapiens, UniProt P07949)", "experiment": "Radiometric filter binding kinase assay", "conditions": "mean of two independent experiments ± SD", "text": "as §1"}, "PDK1": {"target": "PDK1 (Homo sapiens, UniProt O15530)", "experiment": "Radiometric filter binding kinase assay", "text": "as §1"}, "CDK1/CycB": {"target": "CDK1/CycB (Homo sapiens, UniProt P06493)", "experiment": "Radiometric filter binding kinase assay", "text": "as §1"}, "BRAF-V600E": {"target": "BRAF-V600E (Homo sapiens, UniProt P15056, V600E)", "experiment": "Radiometric filter binding kinase assay", "text": "as §1"}, "Fak": {"target": "Fak (Homo sapiens, UniProt Q05397)", "experiment": "Radiometric filter binding kinase assay", "text": "as §1"}, "c-Abl-T315I": {"target": "c-Abl-T315I (Homo sapiens, UniProt P00519, T315I)", "experiment": "Radiometric filter binding kinase assay", "text": "as §1"}, "PKB": {"target": "PKB", "sequence (P31749 whole entry)": "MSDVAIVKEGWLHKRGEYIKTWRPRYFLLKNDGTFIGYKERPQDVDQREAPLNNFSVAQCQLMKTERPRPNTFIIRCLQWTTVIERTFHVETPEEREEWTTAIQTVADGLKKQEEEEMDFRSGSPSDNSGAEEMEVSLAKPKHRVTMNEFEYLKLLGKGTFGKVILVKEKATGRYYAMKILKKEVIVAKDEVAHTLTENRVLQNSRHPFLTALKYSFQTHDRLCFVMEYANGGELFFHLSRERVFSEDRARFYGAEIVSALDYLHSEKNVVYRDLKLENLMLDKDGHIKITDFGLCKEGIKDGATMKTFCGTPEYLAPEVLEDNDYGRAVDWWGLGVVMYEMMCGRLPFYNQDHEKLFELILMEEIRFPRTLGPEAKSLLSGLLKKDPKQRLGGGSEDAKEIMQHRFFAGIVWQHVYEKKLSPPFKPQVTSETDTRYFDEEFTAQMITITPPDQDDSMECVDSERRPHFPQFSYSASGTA", "experiment": "Radiometric filter binding kinase assay", "text": "as §1"}, "[2]": {"target": "T1, purified human topoisomerase II alpha (Homo sapiens, UniProt P11388)", "T1 construct": "screened in an ATPase assay using purified full length tagged human topoisomerase II alpha; made in house; host or cells: Sf21 insect cells, baculovirus (pFastBac1)", "experiment": "DNA decatenation assay with purified enzyme (kDNA)", "conditions": "catenated kDNA, read-out: mean IC50, inhibition of DNA decatenation", "description": "Reagents for the assay were purchased from TopoGEN (catalog number 1001–1, TopoGEN, Inc., Port Orange, FL). Topoisomerase II was extracted according to the manufacturer's instructions from nuclei of HL-60 cells (ATCC; American Type Culture Collection, Manassas, Virginia, USA) and contained both isoforms as assessed by Western blotting. Calculation of specific topoisomerase II decatenation activity was based on complete decatenation of a given amount of catenated input DNA (100 ng kDNA) by a defined amount of nuclear extract containing the alpha and beta isoforms or of a defined amount of purified enzyme in a particular amount of time. The topoisomerase II activity from nuclei decatenated 0.07 ng catenated kDNA · min^-1 · ng^-1 extract. Purified topoisomerase II alpha (see above) decatenated 0.13 ng catenated kDNA · min^-1 · ng^-1. Vehicle (DMSO) or drug substance at concentrations to yield the desired end concentrations were added and samples were preincubated for 5 minutes at 37°C and 400 rpm in an Eppendorf thermomixer. Reactions were started by adding ATP (to 450 μM final concentration) to each sample and incubation was continued for 20 minutes. […] Gels were analyzed under a UV transilluminator and decatenated kDNA products were quantified using AlphaEaseFC (FluorChem 8900) image analysis software version 3.2.3 (Alpha Innotech, San Leandro, CA)."}}}
{"compound": "CCc1nc2nc(Nc3ccc4nc(OCCN5CCOCC5)ccc4c3)nc(NC(C)(C)C)c2[nH]1", "note": "[QAP 1]", "values": [{"measurement": "selectivity over a standard panel of kinases", "setting": "[1]", "value": "greater than 10 fold"}, {"measurement": "IC50", "setting": "Flt-3", "value": "> 10", "unit": "µM"}, {"measurement": "IC50", "setting": "Tek", "value": "> 10", "unit": "µM"}, {"measurement": "IC50", "setting": "c-Abl", "value": "> 10", "unit": "µM"}, {"measurement": "IC50", "setting": "Axl", "value": "> 10", "unit": "µM"}, {"measurement": "IC50", "setting": "IGF-1R", "value": "> 10", "unit": "µM"}, {"measurement": "IC50", "setting": "HER-1", "value": "> 10", "unit": "µM"}, {"measurement": "IC50", "setting": "Jak2", "value": "> 10", "unit": "µM"}, {"measurement": "IC50", "setting": "FGFR3-K560E", "value": "> 10", "unit": "µM"}, {"measurement": "IC50", "setting": "EphB4", "value": "> 10", "unit": "µM"}, {"measurement": "IC50", "setting": "KDR", "value": "> 10", "unit": "µM"}, {"measurement": "IC50", "setting": "c-Src", "value": "1.7 ± 0.5", "unit": "µM"}, {"measurement": "IC50", "setting": "c-Met", "value": "> 10", "unit": "µM"}, {"measurement": "IC50", "setting": "Ret", "value": "1.35 ± 0.05", "unit": "µM"}, {"measurement": "IC50", "setting": "PDK1", "value": "> 10", "unit": "µM"}, {"measurement": "IC50", "setting": "CDK1/CycB", "value": "> 10", "unit": "µM"}, {"measurement": "IC50", "setting": "BRAF-V600E", "value": "> 10", "unit": "µM"}, {"measurement": "IC50", "setting": "Fak", "value": "> 10", "unit": "µM"}, {"measurement": "IC50", "setting": "c-Abl-T315I", "value": "> 10", "unit": "µM"}, {"measurement": "IC50", "setting": "PKB", "value": "> 10", "unit": "µM"}, {"measurement": "IC50", "setting": "[2]", "value": 0.66, "unit": "µM"}]}
